Results from publication PMC8776730 (Nature Communications, 2022).

How the values were obtained:
MIA PaCa-2 cells [1] = experiment: Cellular imaging (CLSM) of FITC-labelled molecules; type: cell-based
Description: To further confirm this hypothesis, the M1 and M2 were equally labeled by FITC for cell imaging (Fig. 5b). To simulate the dynamic physiological condition, the cell culture medium was replaced every 15 min. After 1 h of incubation with M1 and M2 at the same molecule molar concentration, there occurred significant differences between the two molecules (Fig. 5c). […] The huge difference can be explained by the fact that the secondary assembly rate broke the balance between the targeted ligand and receptor, and thus tended to a stable assembly interaction. The retention efficiency depended on the assembly rate constant Ka. Meanwhile, the rapid dynamic assembly of BIVA probe in situ around the cell membrane, and contributed to the efficient formation and retention of nanofibers on the cell profile. When the incubation time was delayed up to 2 h, some components could be endocytosed into the cells, but most of them were found on the membranes (Supplementary Fig. 18). […] Then, the isolated cells were collected and lysed, the extracted cell membrane fragments were stained with ThT. […] In order to verify the influence of the addition of the targeting module of the probe molecules, we explored the imaging of R-M1 and M4 on cells.
(§1) Fig. 5 The BIVA effect with enhanced targeting to pancreatic tumor cell for boundaries imaging. a Illustration of BIVA effect: active targeting and assembly/aggregate induced retention (AIR) effect. b Chemical structure of FITC labeling. c 2D and 3D confocal images of M2 with active targeting property and M1 with BIVA effect on MIA PaCa-2 cells after incubation for 1 h. d The distribution of M1 on MIA PaCa-2 cell. e ThT staining of the lysed cell membrane of MIA PaCa-2. f, Illustration of migration inhibition after treated by BIVA probe. g The image of the migrated cells after treatment of PBS (blank), M2, M4, and M1. Scale bar: 100 μm. h The pie diagram of quantitative statistical calculation of the migrated cells (blue) in different groups. The blank control was set as 100% migrated cells.
MIA PaCa-2 cells were digested with trypsin, counted with cell counting plate, diluted to 1 × 10^4 with DMEM medium, and 1 mL to 1 cm diameter confocal microscope dish was taken. The cells were incubated in […] atmosphere for 24 h. The medium containing M1 and M2 (50 μM) was replaced and incubated with the cells for 2 h. The cells were washed with PBS for 3 times. CLSM (Zeiss 710) was used to image cells under 40 × objective, excitation = 488 nm, and emission >520 nm.
Supplementary Fig. 19 ∣ CLSM images of Miapaca-2 cells treated with different molecules or M1 under different conditions. […]

[2] = Secondary structure proportions from CD spectra; type: physicochemical; conditions: calculated by Reed's Reference based on CD spectra; DI water
Excerpt: To further evaluate the assembled structures, the corresponding circular dichroism (CD), Fourier transform infrared (FTIR) spectroscopy, and wide-angle X-ray scattering (WAXS) spectroscopy were applied. […] The FITR spectra of M1 and M3 in Fig. 3b observed the intermolecular interactions. The peaks at 1629 cm^−1, 1675 cm^−1, and 1698 cm^–1 of M3 indicated anti-parallel β-sheet structure (represent by green arrow heads), peaks at 1648 cm^−1 and 1663 cm^−1 indicated parallel beta sheet structure (represent by blue arrow heads), the existence of 1654 cm^−1 indicate α-Helix structure in M1 which verified the results deduced by CD in Fig. 3a[29],[30]. […] As a homologous sequence with amyloid β-protein (Aβ), the self-assembly motif with peptide sequence of KLVFFGCG had similar aggregation kinetics to (Aβ)42 peptide, which occurred via dynamic growth from oligomers to amyloid fibrils. The aggregation started from the freshly isolated monomers of R-M1, and precipitates were separated in 1 min and 1 h, respectively. […] After analyzed the CD spectra of M1, M3, and R-M1 (Fig. 3e), it can be clearly seen that the main secondary conformation of M1 was Random, the M3 was hybrid of Helix and Beta, and the R-M1 was Beta (Supplementary Table 1). All the results confirmed the conclusion from FTIR spectra. […] The dynamic growth procedure was like the 8-anilino-1-naphthalenesulfonic acid (ANS) stained curve (Supplementary Fig. 12). As known, ANS was sensitive to hydrophobic interaction. When R-M1 were in the initial oligomer, the fluorescence intensity of ANS increased due to the enhanced hydrophobicity. When the molecules were elongated and stacked in higher ordered nanofibrils, the blue shift of ANS in the β-sheet structures reduced the fluorescence. The molecular packing mode of well-ordered fibrils of R-M1 in Fig. 3g observed a weak reflection at 4.9 Å as laminates space and a strong broad reflection at 10.3 Å as sheet space, which was illustrated in the inserted figure. The fibril morphology was characterized by transmission electron microscopy (TEM) imaging (Fig. 3f). The statistical calculation of the fiber diameter in TEM images was 5.0 ± 0.4 nm (Supplementary Fig. 13), which was corresponded to the theoretical calculated two molecules length of R-M1. We assumed that the nanofibers were assembled by twisted R-M1 molecules centered on self-assembly motif.
The secondary structures of M1, M3 and R-M1 were verified by CD spectroscopy (JASCO Corporation, JC-1500) at room temperature with a cell path length of 1 cm. M1, […] and R-M1 were diluted to 100 μM with deionized water at 25 °C and allowed to stand for 12 h for complete assembly. Detail parameter setting were CD scale:200 mdeg/1.0Dod, measure range: 260~190 nm, scanning speed: 500 nm/min, bandwidth: 1.00 nm, and data pitch: 0.5 nm. All spectra were the average of three measurements.
Supplementary Table 1∣ Secondary structure proportions ofM1, M3 and R-M1 calculated by Reed’s Reference based on […]

[3] = Nanofiber dynamic growth, ThT staining; type: physicochemical; conditions: aggregation curve with ThT trace
[4] = Critical assembly concentration (CAC) by pyrene fluorescence probe; type: physicochemical; conditions: for I1/I3: pyrene fluorescence
Excerpt: In order to study the molecular design and their assembly behavior, we modular designed and synthesized seven molecules (Table 1), which respectively were BIVA probe: M1 (mPEG-GPAKLVFFGC(IR783)GRGD); the non- FAP-α tailoring molecule: M2 (mPEG-AGGKLVFFGC(IR783)GRGD) scrambled response tailoring motif of Gly-Pro-Ala with Ala-Gly-Gly; the non-labeling molecule of M1: M3 (mPEG-GPAKLVFFGCGRGD) removed IR783 labeling; FAP-α tailoring residue of M1: R-M1 (AKLVFFGC(IR783)GRGD); the non-targeting molecule: M4 (mPEG-GPAKLVFFGC(IR783)GDTG) scrambled targeting tailoring motif of Arg-Gly-Asp with Asp-Thr-Gly; the non-labeling molecule of M2: M5 (mPEG-AGGKLVFFGCGRGD) removed IR783 labeling; FAP-α tailoring residue of M3: R-M3 (AKLVFFGCGRGD). All the synthesized procedure (Supplementary Fig. 1) and characterizations of these seven molecules can be found in SI (Supplementary Figs. 2–8). […] Without IR783 labeling, molecules of M3 and M5 decreased the CAC value in solution relative to M1 and M2, which could be attributed to the proximity of the steric hindrance of hydrophilic IR783 to the self-assembly motif (Supplementary Fig. 9). […] The CAC was quantitatively calculated by fluorescence probe of pyrene.

MIA PaCa-2 cells [5] = experiment: Cytotoxicity, CCK-8 assay; type: cell-based; conditions: CCK-8, 24 h, at high concentration of 300 μM
Description: The cytotoxicity of M1 and M2 was evaluated using CCK-8 assay in MIA PaCa-2 cells. Cells were seeded into 96-well plates at a density of 5 × 10^4 cells per well and placed in an incubator for 14 h. Subsequently, the sample was diluted into a series of different concentrations (0, 50, 100, 150, 200, 250, 300, and 350 μM) and incubated with cells for 24 h. After that, 10 μL of CCK-8 solution was added to each well and incubated for 2 h. The absorbance of blank wells (Ab), sample wells (As) and control wells (Ac) were measured with a microplate reader at a test wavelength of 450 nm and a reference wavelength of 690 nm. The cell viability rate (%) is equal to (As -Ab) / (Ac -Ab) ×100%. All experiments were repeated in triplicate.
Supplementary Fig. 21∣ Cellviability assay of Miapaca-2 cells treated with a series concentration of M1 and M2 for 24 h.
Tested by Cell Counting Kit-8 (Beyotime, C0039) The mean of results of six parallel experiments isshown and data were
expressed as mean ± SD (n=6).
(§2) (1 picture or pasted object on this page, not shown here)

MIA PaCa-2 tumor = conditions: mouse, in vivo, 16 mg/kg
Description: In order to reduce systemic error and individual difference, we constructed the subcutaneous pancreatic cancer model in mice for quantitatively calculating of the metabolic data.
All the animal experiments were performed in accordance with the Guide for the Care and Use of Laboratory Animals approved by the Committee for Animal Research of the National Center for Nanoscience and Technology. The MIA PaCa-2 tumor-bearing mice were intravenously injected with ICG, M1 and M2 (16 mg/kg), respectively for in vivo fluorescence imaging with in vivo spectrum imaging system. Finally, mice were sacrificed to collect the major organs and tumors for ex vivo fluorescence imaging.

MIA PaCa-2 cells [6] = experiment: Transwell migration assay; type: cell-based; conditions: for migrated cells (Fig S20): MIA PaCa-2 cells
Description: as §1
In order to further understand the contribution of the active targeting and AIR effect during locating of the cells, the cell transwell experiment was used to quantitively evaluate interference of the cell migration based on M1, M2, and M4 (Fig. 5f). As expected, untreated cells were easy to migrate to the lower chamber, while the cells treated with active targeting molecule M2 and assembled molecule M4, the migration of cell were reduced. Under the same molar concentration, the M1 treatment group had the most inference on cell migration (Fig. 5g). […] Based on those results, we speculate M1 can be more enriched in the tumor site and form fibers through assembly to inhibit tumor cell migration compared to M2 and M4 which have no ability to target and adhere on the cell membrane.
Transwell migration assay occurred in chemotaxis chambers containing 24 wells. […] Bottom chambers contained DMEM medium containing 10% FBS. After 24 h of treatment with M1, M2, and M4 (150 μM), we fixed cells using 4% paraformaldehyde and stained with 0.25% crystal violet solution. The stained cells were counted using a microscope.
Supplementary Fig. 20∣ The quantitative results of the migrated cells after treatment of PBS (blank), M2, […] and
M1 (Fig 5g). The mean of results of fiveparallel experiments is shown and data were expressed as mean ± SD (n=5).
pM1 = 5.85E-06, pM2 = 5.94E-05, pM4 = 3.16 E-04, Statisticalanalysis: one-way ANOVA followed by post hoc Tukey’s
as §2

[7] = mouse, in vivo, iv, 16 mg/kg
[8] = tested on: Recombinant Human Fibroblast Activation Protein-α (FAP-α); experiment: FAP-α in buffer: 50 mM Tris, 1 M NaCl, 1 mg/mL, BSA, pH 7.5; conditions: up to 12 h
[9] = MIA PaCa-2 cells (supplement contents: Miapaca-2 cell lysis); conditions: up to 2 h
[10] = MIA PaCa-2 cells / Miapaca-2 cell lysis; conditions: up to 2 h

## AKLVFFGC(IR783)GRGD [R-M1, FAP-α tailoring residue of M1]
MIA PaCa-2 cells [1]; co-incubation with MIA PaCa-2 cells
  state in the medium (solubility): insoluble suspended mixture
[2]
  Secondary structure proportion: Beta: 72%
  Secondary structure proportion: Helix: 0.5%
  Secondary structure proportion: Random: 0%
  Secondary structure proportion: Turn: 27.5%
[3]
  final plain phase: > 30 min
[4]; aqueous solution, analyzed based on pyrene fluorescence
  Critical assembly concentration (CAC): 37.2 µM
[4]; conc 1.56 μM
  I1/I3: 1.233
[4]; conc 12.5 μM
  I1/I3: 1.275
[4]; conc 25 μM
  I1/I3: 1.246
[4]; conc 100 μM
  I1/I3: 1.302
[4]; conc 200 μM
  I1/I3: 1.43

## mPEG-AGGKLVFFGC(IR783)GRGD [M2]
MIA PaCa-2 cells [5]
  cytotoxicity: no obvious cytotoxicity
MIA PaCa-2 tumor
  reduction of tumor fluorescence signal between 12 h and 120 h: disappeared completely
MIA PaCa-2 tumor; iv
  time of distribution and accumulation in the tumor area: 0.1 to 24 h
MIA PaCa-2 cells [1]; FITC-labelled molecules, MIA PaCa-2 cells, 1 h incubation, CLSM
  fluorescence signal on the cell membrane: significantly reduced the fluorescence signal
MIA PaCa-2 cells [6]; MIA PaCa-2, 150 μM, 24 h, blank control = 1
  emigrate (migrated cells relative to blank): 0.6397
MIA PaCa-2 cells [6]; averge of groups 1-3
  migrated cells (Fig S20): 587
MIA PaCa-2 cells [6]; group 1
  migrated cells (Fig S20): 547
MIA PaCa-2 cells [6]; group 2
  migrated cells (Fig S20): 625
MIA PaCa-2 cells [6]; group 3
  migrated cells (Fig S20): 589
[7]
  blood circulation half-life (t1/2): 1.7 ± 0.067 h

## mPEG-GPAKLVFFGC(IR783)GRGD
[8]
  cleaved bond: Pro-Ala
[9]
  fragment found: R-M1
[10]
  fragment found: PEG residues
